Results published in patent US7396837B2, “Antitumoral analogs of lamellarins” (Pharma Mar, S.A.U., priority 2002, dated 2008).

Assays:
Assay type in all cases: cell-based
[1] = tested on: LoVo-Dox; test: SRB colorimetric cell growth inhibition assay, LoVo-Dox (MDR); details: Homo sapiens, LOVO-DOX; for GI50: GI=growth inhibition, read-out: GI50 LOVO-DOX; for CC50: cell killing (cytotoxic effect), read-out: LC50 LOVO-DOX; for IC (TGI): total growth inhibition (cytostatic effect), read-out: TGI LOVO-DOX
Excerpt: (§1) The finality of these assays is to interrupt the growth of an “in vitro” tumor cell culture by means a continued exhibition of the cells to the sample to be testing.
(§2) A colorimetric type of assay, using sulforhodamine B (SRB) reaction has been adapted for a quantitative measurement of cell growth and viability (following the technique described by P. A. Skehan, et al., J. Natl. Cancer Inst. 1990, 82, 1107-1112).
(§3) This form of assay employs 96 well cell culture microplates of 9 mm diameter (T. Mosmann et al., J. of Immunological Methods 1983, 65, 55-63; G. T. Faircloth et al., J. of Tissue and Culture Methods 1988, 11, 201-205).
(§4) Most of the cell lines are obtained from American Type Culture Collection (ATCC) derived from different human cancer types.
(§5) The values for mean +/− SD of data from triplicate wells are calculated. Some parameters for cellular responses can be calculated: GI=growth inhibition, TGI=total growth inhibition (cytostatic effect) and LC=cell killing (cytotoxic effect).

[2] = tested on: HT-29; test: SRB colorimetric cell growth inhibition assay, HT-29; details: Homo sapiens, HT-29, HT-29; for GI50: GI=growth inhibition, read-out: GI50 HT-29; for CC50: cell killing (cytotoxic effect), read-out: LC50 HT-29; for IC (TGI): total growth inhibition (cytostatic effect), read-out: TGI HT-29
Excerpt: as §1, §2, §3, §4, §5

[3] = tested on: A-549; test: SRB colorimetric cell growth inhibition assay, A-549; details: Homo sapiens, A549, A-549; for GI50: GI=growth inhibition, read-out: GI50 A-549; for CC50: cell killing (cytotoxic effect), read-out: LC50 A-549; for IC (TGI): total growth inhibition (cytostatic effect), read-out: TGI A-549
Excerpt: as §1, §2, §3, §4, §5

[4] = tested on: HeLa; test: SRB colorimetric cell growth inhibition assay, HeLa; details: Homo sapiens, HeLa; for GI50: GI=growth inhibition, read-out: GI50 HELA; for CC50: cell killing (cytotoxic effect), read-out: LC50 HELA; for IC (TGI): total growth inhibition (cytostatic effect), read-out: TGI HELA
Excerpt: as §1, §2, §3, §4, §5

[5] = tested on: SK-MEL-28; test: SRB colorimetric cell growth inhibition assay, SK-MEL-28; details: Homo sapiens, SK-MEL-28, MEL-28; for GI50: GI=growth inhibition, read-out: GI50 MEL-28; for CC50: cell killing (cytotoxic effect), read-out: LC50 MEL-28; for IC (TGI): total growth inhibition (cytostatic effect), read-out: TGI MEL-28
Excerpt: as §1, §2, §3, §4, §5

[6] = tested on: IGROV-ET; test: SRB colorimetric cell growth inhibition assay, IGROV-ET (ET-743 resistant); details: Homo sapiens, IGROV-ET; for GI50: GI=growth inhibition, read-out: GI50 IGROV-ET; for CC50: cell killing (cytotoxic effect), read-out: LC50 IGROV-ET; for IC (TGI): total growth inhibition (cytostatic effect), read-out: TGI IGROV-ET
Excerpt: as §1, §2, §3, §4, §5

[7] = tested on: DU-145; test: SRB colorimetric cell growth inhibition assay, DU-145; details: Homo sapiens, DU-145, DU-145; for GI50: GI=growth inhibition, read-out: GI50 DU-145; for CC50: cell killing (cytotoxic effect), read-out: LC50 DU-145; for IC (TGI): total growth inhibition (cytostatic effect), read-out: TGI DU-145
Excerpt: as §1, §2, §3, §4, §5

[8] = tested on: PANC-1; test: SRB colorimetric cell growth inhibition assay, PANC-1; details: Homo sapiens, PANC-1, PANC-1; for GI50: GI=growth inhibition, read-out: GI50 PANC-1; for CC50: cell killing (cytotoxic effect), read-out: LC50 PANC-1; for IC (TGI): total growth inhibition (cytostatic effect), read-out: TGI PANC-1
Excerpt: as §1, §2, §3, §4, §5

[9] = tested on: HeLa-APL; test: SRB colorimetric cell growth inhibition assay, HeLa-APL (aplidine resistant); details: Homo sapiens, HELA-APL; for GI50: GI=growth inhibition, read-out: GI50 HELA-APL; for CC50: cell killing (cytotoxic effect), read-out: LC50 HELA-APL; for IC (TGI): total growth inhibition (cytostatic effect), read-out: TGI HELA-APL
Excerpt: as §1, §2, §3, §4, §5

[10] = tested on: SK-BR-3; test: SRB colorimetric cell growth inhibition assay, SK-BR-3; details: Homo sapiens, SK-BR-3, SK-BR-3; for GI50: GI=growth inhibition, read-out: GI50 SK-BR-3; for CC50: cell killing (cytotoxic effect), read-out: LC50 SK-BR-3; for IC (TGI): total growth inhibition (cytostatic effect), read-out: TGI SK-BR-3
Excerpt: as §1, §2, §3, §4, §5

[11] = tested on: LoVo; test: SRB colorimetric cell growth inhibition assay, LoVo; details: Homo sapiens, LoVo; for GI50: GI=growth inhibition, read-out: GI50 LOVO; for CC50: cell killing (cytotoxic effect), read-out: LC50 LOVO; for IC (TGI): total growth inhibition (cytostatic effect), read-out: TGI LOVO
Excerpt: as §1, §2, §3, §4, §5

[12] = tested on: IGROV; test: SRB colorimetric cell growth inhibition assay, IGROV; details: Homo sapiens, IGROV; for GI50: GI=growth inhibition, read-out: GI50 IGROV; for CC50: cell killing (cytotoxic effect), read-out: LC50 IGROV; for IC (TGI): total growth inhibition (cytostatic effect), read-out: TGI IGROV
Excerpt: as §1, §2, §3, §4, §5

[13] = tested on: K-562; test: SRB colorimetric cell growth inhibition assay, K-562; details: Homo sapiens, K562, K-562
Excerpt: as §1, §2, §3, §4, §5

COc1cc2ccn3c(c(-c4ccc(OC(=O)[C@H](C)N)c(OC)c4)c4c5cc(OC)c(OC(=O)[C@H](C)N)cc5oc(=O)c43)c2cc1OC [Compound 20]
GI50 [1]: 0.525 µM | CC50 [1]: 15.3 µM | IC (TGI) [1]: 2.06 µM | GI50 [2]: 3.58 µM | CC50 [2]: 15.3 µM | IC (TGI) [2]: 15.3 µM | GI50 [3]: 0.589 µM | CC50 [3]: 15.3 µM | IC (TGI) [3]: 15.3 µM | GI50 [4]: 1.17 µM | CC50 [4]: 15.3 µM | IC (TGI) [4]: 15.3 µM | GI50 [5]: 2.24 µM | CC50 [5]: 15.3 µM | IC (TGI) [5]: 15.3 µM | GI50 [6]: 0.593 µM | CC50 [6]: 15.3 µM | IC (TGI) [6]: 15.3 µM | GI50 [7]: 0.5 µM | CC50 [7]: 15.3 µM | IC (TGI) [7]: 2.36 µM | GI50 [8]: 1.24 µM | CC50 [8]: 15.3 µM | IC (TGI) [8]: 15.3 µM | GI50 [9]: 2.09 µM | CC50 [9]: 15.3 µM | IC (TGI) [9]: 15.3 µM | GI50 [10]: 0.0548 µM | CC50 [10]: 15.3 µM | IC (TGI) [10]: 0.238 µM | GI50 [11]: 0.436 µM | CC50 [11]: 15.3 µM | IC (TGI) [11]: 8.83 µM | GI50 [12]: 0.516 µM | CC50 [12]: 15.3 µM | IC (TGI) [12]: 7.46 µM

COc1cc(-c2c3c4cc(OC)c(OC(C)C)cc4oc(=O)c3n3ccc4c(OC(C)C)c(OC)c(OC)cc4c23)ccc1OC(C)C [Compound 27]
GI50 [1]: 15.2 µM | CC50 [1]: 15.2 µM | IC (TGI) [1]: 15.2 µM | GI50 [2]: 0.144 µM | CC50 [2]: 15.2 µM | IC (TGI) [2]: 2.17 µM | GI50 [3]: 5.49 µM | CC50 [3]: 15.2 µM | IC (TGI) [3]: 15.2 µM | GI50 [4]: 4.04 µM | CC50 [4]: 15.2 µM | IC (TGI) [4]: 9.47 µM | GI50 [5]: 4.47 µM | CC50 [5]: 15.2 µM | IC (TGI) [5]: 9.35 µM | GI50 [6]: 10.4 µM | CC50 [6]: 15.2 µM | IC (TGI) [6]: 15.2 µM | GI50 [7]: 0.976 µM | CC50 [7]: 12.6 µM | IC (TGI) [7]: 3.95 µM | GI50 [8]: 4.41 µM | CC50 [8]: 15.2 µM | IC (TGI) [8]: 13 µM | GI50 [9]: 13 µM | CC50 [9]: 15.2 µM | IC (TGI) [9]: 15.2 µM | GI50 [10]: 0.881 µM | CC50 [10]: 14.1 µM | IC (TGI) [10]: 3.25 µM | GI50 [11]: 0.27 µM | CC50 [11]: 15.2 µM | IC (TGI) [11]: 2.17 µM | GI50 [12]: 1.15 µM | CC50 [12]: 15.2 µM | IC (TGI) [12]: 5.06 µM

CCCCCCCC(=O)Oc1ccc(-c2c3n(c4c(=O)oc5cc(OC(=O)CCCCCCC)c(OC)cc5c24)CCc2cc(OC(=O)CCCCCCC)c(OC)cc2-3)cc1OC [Compound 28]
GI50 [1]: 11.4 µM | CC50 [1]: 11.4 µM | IC (TGI) [1]: 11.4 µM | GI50 [2]: 0.111 µM | CC50 [2]: 11.4 µM | IC (TGI) [2]: 1.2 µM | GI50 [3]: 1.39 µM | CC50 [3]: 11.4 µM | IC (TGI) [3]: 11.4 µM | GI50 [4]: 2.76 µM | CC50 [4]: 11.4 µM | IC (TGI) [4]: 9.24 µM | GI50 [5]: 2.24 µM | CC50 [5]: 11.4 µM | IC (TGI) [5]: 7.28 µM | GI50 [6]: 11.4 µM | CC50 [6]: 11.4 µM | IC (TGI) [6]: 11.4 µM | GI50 [7]: 0.315 µM | CC50 [7]: 7.32 µM | IC (TGI) [7]: 1.47 µM | GI50 [8]: 1.91 µM | CC50 [8]: 11.4 µM | IC (TGI) [8]: 11.4 µM | GI50 [9]: 9.53 µM | CC50 [9]: 11.4 µM | IC (TGI) [9]: 11.4 µM | GI50 [10]: 0.941 µM | CC50 [10]: 11.4 µM | IC (TGI) [10]: 4.73 µM | GI50 [11]: 0.634 µM | CC50 [11]: 11.4 µM | IC (TGI) [11]: 5.16 µM | GI50 [12]: 1.64 µM | CC50 [12]: 9.61 µM | IC (TGI) [12]: 3.97 µM

C=CCOC(=O)N[C@@H](C)C(=O)Oc1ccc(-c2c3c4cc(OC)c(OC(=O)[C@H](C)NC(=O)OCC=C)cc4oc(=O)c3n3ccc4cc(OC(=O)[C@H](C)NC(=O)OCC=C)c(OC)cc4c23)cc1OC [Compound 210]
GI50 [1]: 2.43 µM | CC50 [1]: 10.4 µM | IC (TGI) [1]: 6.04 µM | GI50 ([13]; GI=growth inhibition, read-out: GI50 K-562): 0.612 µM | CC50 ([13]; cell killing (cytotoxic effect), read-out: LC50 K-562): 6.17 µM | IC (TGI) ([13]; total growth inhibition (cytostatic effect), read-out: TGI K-562): 2.13 µM | GI50 [2]: 7.09 µM | CC50 [2]: 10.4 µM | IC (TGI) [2]: 10.4 µM | GI50 [3]: 0.477 µM | CC50 [3]: 10.4 µM | IC (TGI) [3]: 3.94 µM | GI50 [4]: 0.611 µM | CC50 [4]: 10.4 µM | IC (TGI) [4]: 5.54 µM | GI50 [6]: 0.145 µM | CC50 [6]: 0.92 µM | IC (TGI) [6]: 0.366 µM | GI50 [7]: 0.181 µM | CC50 [7]: 0.631 µM | IC (TGI) [7]: 0.339 µM | GI50 [8]: 0.398 µM | CC50 [8]: 4.87 µM | IC (TGI) [8]: 1.51 µM | GI50 [9]: 0.516 µM | CC50 [9]: 10.4 µM | IC (TGI) [9]: 3.08 µM | GI50 [10]: 0.397 µM | CC50 [10]: 4.59 µM | IC (TGI) [10]: 1.36 µM | GI50 [11]: 2.05 µM | CC50 [11]: 7.76 µM | IC (TGI) [11]: 3.99 µM | GI50 [12]: 0.317 µM | CC50 [12]: 3.65 µM | IC (TGI) [12]: 1.06 µM
